Among the data in ChEMBL document CHEMBL3886406, “Substituted pyrrolo[2,3-b]pyridines as ITK and JAK inhibitors” (2015) are IC50 values, retold here.

The target of this experiment is T1, Tyrosine-protein kinase ITK/TSK (Homo sapiens, UniProt Q08881).
T1 sequence (Q08881 whole entry): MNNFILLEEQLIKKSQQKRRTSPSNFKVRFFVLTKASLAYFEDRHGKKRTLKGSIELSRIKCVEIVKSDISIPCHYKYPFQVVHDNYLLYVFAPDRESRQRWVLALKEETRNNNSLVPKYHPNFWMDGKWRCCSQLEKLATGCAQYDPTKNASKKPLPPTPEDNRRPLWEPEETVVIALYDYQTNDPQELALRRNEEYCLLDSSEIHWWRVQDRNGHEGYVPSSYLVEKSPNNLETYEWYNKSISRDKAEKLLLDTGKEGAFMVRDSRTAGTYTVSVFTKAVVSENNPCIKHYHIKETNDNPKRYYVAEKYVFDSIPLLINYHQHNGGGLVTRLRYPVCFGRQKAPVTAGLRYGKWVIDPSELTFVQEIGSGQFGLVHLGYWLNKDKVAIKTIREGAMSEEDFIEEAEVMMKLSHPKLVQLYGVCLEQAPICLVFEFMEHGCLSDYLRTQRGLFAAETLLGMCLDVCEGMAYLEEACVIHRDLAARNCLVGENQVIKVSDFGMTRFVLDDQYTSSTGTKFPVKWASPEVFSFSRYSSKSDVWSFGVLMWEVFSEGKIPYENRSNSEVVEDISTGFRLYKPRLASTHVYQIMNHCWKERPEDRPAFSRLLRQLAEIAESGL
Nature of the experiment: Biochemical Inhibition Assay: 1H-pyrrolo[2,3-b]pyridine, 1H-pyrazolo[3,4-b]pyridine and 5H-pyrrolo[2,3-b]pyrazine series of compounds exhibited over >100 fold selective against Janus and TEC family of kinases except for the BMX and TXK it had activity of 30 and 45 nM respectively.
One may read the IC50 as the midpoint of a concentration-inhibition curve. The low end stands for higher potency, the high end for lower potency. For the compound `C=CC(=O)Nc1cccc(-c2cnc3[nH]cc(-c4cccc(C)c4F)c3c2)c1`, the IC50 result is “in the range around 72.4 nM”.

For `C=CC(=O)Nc1cccc(-c2cnc3[nH]cc(Cl)c3c2)c1`, the concentration for half-maximal inhibition (IC50) entry was “in the range around 35 nM”.

As for `C=CC(=O)Nc1cccc(-c2cnc3[nH]cc(C)c3c2)c1`, the IC50 entry was “in the range around 35 nM”.

With `C=CC(=O)Nc1cccc(-c2cnc3[nH]cc(-c4cccc(S(=O)(=O)N(CC)CC)c4)c3c2)c1`, the IC50 result is “in the range around 35 nM”.

Take `C=CC(=O)Nc1cccc(-c2cnc3[nH]cc(-c4cc5ccccc5[nH]4)c3n2)c1`: the IC50 result was “in the range around 35 nM”.
